We go through four compounds from ChEMBL document CHEMBL5726701, “Pyrazine derivatives as phosphatidylinositol 3-kinase inhibitors” (2018).

The target in this assay is Phosphatidylinositol 3-kinase catalytic subunit type 3 (Homo sapiens, UniProt Q8NEB9). As to the kind of experiment: Kinase Glo Luminescent Kinase Assay: PI 3-Kinase Alpha (A), Pb 3-Kinase Beta (B), Vps34 (C), PI 4-Kinase Beta (D):The luminescence-based ATP detection reagent KinaseGlo was obtained from Promega, (Cat. No. V6714, Lot No. 236161) through Catalys, Wallisellen, Switzerland. L-alpha-phosphatidylinositol (PI, liver, bovine) was obtained from Avanti Polar Lipid (Cat. No. 840042C, Lot#LPI-274), Phosphatidylinositol-4,5-bisphosphate (PIP(4,5)2) was also obtained from Avanti Polar Lipid (Cat. No. 840046X). L-α-Phosphatidylserine (PS) was obtained from Avanti Polar Lipid (Cat. No. 840032C), n-Octylglucoside from Avanti Polar Lipid (Cat. No. 10634425001). Luminescence is a well established readout to determine ATP concentrations and can thus be used to follow the activity of many kinases regardless of their substrate. The Kinase Glo Luminescent Kinase Assay (Promega, Madison/WI, USA) is a homogeneous HTS method of measuring kinase activity by quantifying the amount of ATP remaining in solution following a kinase reaction.
Chain of Phosphatidylinositol 3-kinase catalytic subunit type 3 (Q8NEB9 whole entry): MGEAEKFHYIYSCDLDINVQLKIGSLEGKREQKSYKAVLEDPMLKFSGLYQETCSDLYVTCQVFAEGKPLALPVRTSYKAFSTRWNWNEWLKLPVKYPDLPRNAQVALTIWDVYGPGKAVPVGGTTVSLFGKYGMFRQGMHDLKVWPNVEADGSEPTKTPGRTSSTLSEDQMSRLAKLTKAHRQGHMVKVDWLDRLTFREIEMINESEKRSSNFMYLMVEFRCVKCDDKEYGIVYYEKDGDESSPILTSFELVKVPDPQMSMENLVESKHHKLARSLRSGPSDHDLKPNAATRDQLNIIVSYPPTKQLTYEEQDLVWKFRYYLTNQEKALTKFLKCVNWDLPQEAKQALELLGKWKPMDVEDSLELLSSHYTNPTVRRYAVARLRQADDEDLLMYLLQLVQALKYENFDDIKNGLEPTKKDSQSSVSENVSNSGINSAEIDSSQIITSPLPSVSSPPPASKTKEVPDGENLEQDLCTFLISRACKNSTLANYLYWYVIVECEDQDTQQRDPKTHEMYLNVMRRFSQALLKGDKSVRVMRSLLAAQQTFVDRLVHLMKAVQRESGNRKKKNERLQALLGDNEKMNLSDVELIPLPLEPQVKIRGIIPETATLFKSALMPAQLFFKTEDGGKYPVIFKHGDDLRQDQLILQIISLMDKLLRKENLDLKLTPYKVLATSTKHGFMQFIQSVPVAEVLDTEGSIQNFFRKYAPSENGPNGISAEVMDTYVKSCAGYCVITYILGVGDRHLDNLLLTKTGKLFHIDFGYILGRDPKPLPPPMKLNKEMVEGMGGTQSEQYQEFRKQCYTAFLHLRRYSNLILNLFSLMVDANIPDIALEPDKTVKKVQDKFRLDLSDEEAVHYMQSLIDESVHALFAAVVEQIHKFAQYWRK
As to `Cc1ccc(S(=O)(=O)N[C@H]2CC[C@H](O)CC2)cc1-c1cncc(-c2csc(CN3CCOCC3)c2)n1`, the concentration for half-maximal inhibition (IC50) (commonly the concentration needed to halve the response being measured) is 8.6 µM.

Take `Cc1ccc(S(=O)(=O)NC2CC3(CC(O)C3)C2)cc1-c1cncc(-c2cn(C)nc2C)n1` (centres undefined): the IC50 came out at 9.4 µM.

With `Cc1cc(-c2cncc(-c3cc(S(=O)(=O)NC[C@H]4C[C@@H](O)C4)ccc3C)n2)n(C)n1`, 2.45 µM corresponded to half-maximal inhibition (IC50).

On to `Cc1ccc(S(=O)(=O)NC[C@H]2C[C@@H](O)C2)cc1-c1cncc(-c2cn(C)nc2C)n1`, for which the half-maximal inhibitory concentration (IC50) turned out to be 4.4 µM. This IC50 is about 1.8-fold higher than that of the compound before.
